The text below walks through data of US9249163B2, “PDE10a inhibitors for the treatment of type II diabetes” (Janssen Pharmaceutica, NV, priority 2013, dated 2016).

Assay [1] deals with Human recombinant PDE10A2 (Homo sapiens (Human), UniProt Q9Y233). Description: In vitro hPDE10a (human recombinant PDE10A2, scintillation proximity assay). In kind it is biochemical. Conditions: human recombinant PDE10A2, 60 nM cAMP, 60 min at room temperature; read-out: hPDE10a2 IC50. On the procedure: Human recombinant PDE10A2 was expressed in Sf9 cells, using a recombinant baculovirus construct containing the full length sequence containing a 6×His sequence following the start Met to allow metal affinity purification of the recombinant protein. Cells were harvested and the phosphodiesterase protein was purified by metal chelate chromatography on Ni-sepharose 6FF.
The affinity of the compounds of Formula (I) for phophodiesterases (PDE) was measured by a scintillation proximity assay (SPA). PDE Yttrium Silicate SPA beads allow PDE activity to be measured by direct binding of the primary phosphate groups of non-cyclic AMP or GMP to the beads via a complex iron chelation mechanism. The amount of bound tritiated product ([^3H]-AMP) is measured by liquid scintillation counting.
The compounds were dissolved and diluted in 100% DMSO in polystyrene plates to a concentration of 100-fold the final concentration in the assay. Human PDE10A enzyme solution (10 μL) was added to 20 μL, of incubation buffer (50 mM Tris pH 7.8, 8.3 mM MgCl2, 1.7 mM EGTA), 10 μL, substrate solution consisting of a mixture of non-tritiated and tritiated substrate (60 nM cAMP, 0.008 μCi ^3H-cAMP), and 0.4 μL, compound in 100% DMSO in a 384-well plate, and incubated for 60 min at room temperature. After incubation, the reaction was stopped with 20 μL, of stop solution, consisting of PDE SPA beads (17.8 mg beads/mL in 18 mM zinc sulphate). After sedimentation of the beads for 30 min, the radioactivity was measured in a Perkin Elmer Topcount scintillation counter and results were expressed as cpm. To measure the low control, no enzyme was added to the reaction mixture.
Data were calculated as the percentage of inhibition of total activity measured in the absence of test compound (% control).
In general terms: Scintillation proximity formats need no separation of bound from free tracer.

For assay [2], the target named is Rat recombinant PDE10a (rPDE10a) (Rattus norvegicus (Rat), UniProt Q9QYJ6). Put plainly: In vitro assay PDE10a (rat recombinant PDE10a, SPA). Format: biochemical. Conditions: 60 nM cAMP, 60 min at rt, read-out: rPDE10a2 IC50. How it is done: Rat recombinant PDE10a (rPDE10a) was expressed in Sf9 cells using a recombinant rPDE10a baculovirus construct. Cells were harvested after 48 h of infection and the rPDE10a protein was purified by metal chelate chromatography on Ni-sepharose 6FF. Tested compounds were dissolved and diluted in 100% DMSO to a concentration 100 fold of the final concentration in the assay. Compound dilutions (0.4 μL) were added in 384 well plates to 20 μL of incubation buffer (50 mM Tris pH 7.8, 8.3 mM MgCl2, 1.7 mM EGTA). 10 μL of rPDE10a enzyme in incubation buffer was added and the reaction was started by addition of 10 μL substrate to a final concentration of 60 nM cAMP and 0.008 μCi ^3H-cAMP. The reaction was incubated for 60 min at rt. After incubation, the reaction was stopped with 20 μL of 17.8 mg/mL PDE SPA beads. After sedimentation of the beads during 30 min the radioactivity was measured in a Perkin Elmer Topcount scintillation counter and results were expressed as cpm. For blank values the enzyme was omitted from the reaction and replaced by incubation buffer. Control values were obtained by addition of a final concentration of 1% DMSO instead of compound.

Where a name gives a salt, the structure may show the parent alone.

By IC50 is commonly meant the concentration needed to halve the response being measured.

Sequence of Human recombinant PDE10A2 (Q9Y233 267-1055): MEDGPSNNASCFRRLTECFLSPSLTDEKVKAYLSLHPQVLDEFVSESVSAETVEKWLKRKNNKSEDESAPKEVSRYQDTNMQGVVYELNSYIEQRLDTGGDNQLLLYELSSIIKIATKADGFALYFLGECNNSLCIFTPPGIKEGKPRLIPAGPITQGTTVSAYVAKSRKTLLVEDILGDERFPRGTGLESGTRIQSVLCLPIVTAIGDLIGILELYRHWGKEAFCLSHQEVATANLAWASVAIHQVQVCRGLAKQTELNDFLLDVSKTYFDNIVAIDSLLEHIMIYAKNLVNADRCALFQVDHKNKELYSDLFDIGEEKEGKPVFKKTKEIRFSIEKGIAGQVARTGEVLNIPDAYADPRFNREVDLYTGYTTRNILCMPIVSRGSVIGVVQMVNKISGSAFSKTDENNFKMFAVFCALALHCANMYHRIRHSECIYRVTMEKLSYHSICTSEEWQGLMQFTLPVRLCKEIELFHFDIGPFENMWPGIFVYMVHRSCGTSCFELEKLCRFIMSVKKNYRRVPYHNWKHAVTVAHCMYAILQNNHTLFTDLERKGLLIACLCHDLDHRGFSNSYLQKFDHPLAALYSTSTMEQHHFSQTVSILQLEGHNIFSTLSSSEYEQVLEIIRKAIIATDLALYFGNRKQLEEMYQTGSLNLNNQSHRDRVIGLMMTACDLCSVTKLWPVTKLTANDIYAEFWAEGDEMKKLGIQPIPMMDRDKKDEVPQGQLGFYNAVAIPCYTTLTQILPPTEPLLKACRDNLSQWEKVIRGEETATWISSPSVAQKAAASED
Sequence of Rat recombinant PDE10a (rPDE10a) (Q9QYJ6 whole entry): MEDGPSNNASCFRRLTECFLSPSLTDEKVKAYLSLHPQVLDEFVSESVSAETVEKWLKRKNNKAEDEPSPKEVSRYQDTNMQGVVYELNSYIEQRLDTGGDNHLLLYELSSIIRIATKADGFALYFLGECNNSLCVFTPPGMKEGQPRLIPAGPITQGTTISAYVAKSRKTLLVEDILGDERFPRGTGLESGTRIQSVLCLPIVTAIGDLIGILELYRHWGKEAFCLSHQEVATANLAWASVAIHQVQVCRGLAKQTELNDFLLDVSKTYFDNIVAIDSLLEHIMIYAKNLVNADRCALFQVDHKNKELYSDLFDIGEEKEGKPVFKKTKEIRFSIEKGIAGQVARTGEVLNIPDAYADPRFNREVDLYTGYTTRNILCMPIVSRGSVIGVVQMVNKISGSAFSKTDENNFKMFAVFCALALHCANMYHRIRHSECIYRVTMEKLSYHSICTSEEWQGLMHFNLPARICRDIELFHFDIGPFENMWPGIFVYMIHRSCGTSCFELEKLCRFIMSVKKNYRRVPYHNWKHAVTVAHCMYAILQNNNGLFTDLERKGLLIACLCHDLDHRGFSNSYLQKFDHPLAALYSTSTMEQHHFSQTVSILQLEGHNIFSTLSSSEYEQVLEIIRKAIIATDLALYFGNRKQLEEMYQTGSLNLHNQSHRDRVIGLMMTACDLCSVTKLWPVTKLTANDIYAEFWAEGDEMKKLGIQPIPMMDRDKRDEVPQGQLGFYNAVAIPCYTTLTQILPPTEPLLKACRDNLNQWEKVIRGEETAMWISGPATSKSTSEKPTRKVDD

With `O=C(O)CNc1ccc(-c2cnc(N3CCOCC3)c3nc(/C=C/c4ccc5ccccc5n4)cn23)cc1` [Cpd 29, (E)-2-(4-(8-Morpholino-2-(2-(quinolin-2-yl)vinyl)imidazo[1,2-a]pyrazin-5-yl)phenylamino)acetic acid trifluoroacetic acid salt], the values for the IC50 in assay [1] and in assay [2] were 24 nM and 15 nM, respectively.
Regarding `COCCOCCOc1ccc(-c2cnc(N3CCOCC3)c3nc(CCc4ccc5ccccc5n4)cn23)cc1` [Cpd 31, 4-(5-(4-(2-(2-Methoxyethoxy)ethoxy)phenyl)-2-(2-(quinolin-2-yl)ethyl)imidazo[1,2-a]pyrazin-8-yl)morpholine], the 50% inhibitory concentration (IC50) in assay [1] was determined as 1 nM; in assay [2], 115 nM.
As to `O=C(O)CCC(=O)Nc1ccc(-c2cnc(N3CCOCC3)c3nc(/C=C/c4ccc5ccccc5n4)cn23)cc1` [Cpd 32], the figures for the IC50 in assay [1] and in assay [2] were 12 nM and 6 nM, respectively.
For the compound `Cn1nc(-c2ccc(-c3cnc(N4CCOCC4)c4nc(CCc5ccc6ccccc6n5)cn34)cc2)[nH]c1=O` [Cpd 33, 1-Methyl-3-[4-[8-(morpholin-4-yl)-2-[2-(quinolin-2-yl)ethyl]imidazo[1,2-a]pyrazin-5-yl]phenyl]-4,5-dihydro-1H-1,2,4-triazol-5-one], the IC50 in assay [1] came out at 21 nM; in assay [2], 23 nM.
In the case of `CC(C)[C@H](NC(=O)c1ccc(-c2cnc(N3CCOCC3)c3nc(CCc4ccc5ccccc5n4)cn23)cc1)C(=O)O` [Cpd 34, (S)-3-Methyl-2-(4-(8-morpholino-2-(2-(quinolin-2-yl)ethyl)imidazo[1,2-a]pyrazin-5-yl)benzamido)butanoic acid trifluoroacetic acid salt], the IC50 in assay [1] stood at 5 nM; in assay [2] it was 13 nM.
In the case of `O=C(O)[C@@H]1CCCN1C(=O)c1ccc(-c2cnc(N3CCOCC3)c3nc(CCc4ccc5ccccc5n4)cn23)cc1` [Cpd 35, (S)-1-(4-(8-Morpholino-2-(2-(quinolin-2-yl)ethyl)imidazo[1,2-a]pyrazin-5-yl)benzoyl)pyrrolidine-2-carboxylic acid trifluoroacetic acid salt], the values for the IC50 in assay [1] and in assay [2] were 7 nM and 12 nM, respectively.
For `c1ccc2nc(CCc3cn4c(-c5ccc(Sc6cnn[nH]6)cc5)cnc(N5CCOCC5)c4n3)ccc2c1` [Cpd 36, 4-(5-(4-((1H-1,2,3-triazol-5-yl)thio)phenyl)-2-(2-(quinolin-2-yl)ethyl)imidazo[1,2-a]pyrazin-8-yl)morpholine], in that order: 17 nM and 23 nM.
On to `O=C(O)CCNC(=O)c1ccc(-c2cnc(N3CCOCC3)c3nc(CCc4ccc5ccccc5n4)cn23)cc1` [Cpd 38, 3-(4-(8-Morpholino-2-(2-(quinolin-2-yl)ethyl)imidazo[1,2-a]pyrazin-5-yl)benzamido)propanoic acid], for which the IC50 in assay [1] worked out at 2 nM; in assay [2] it was 7 nM.
On to `O=C(O)CCNC(=O)c1ccc(-c2cnc(N3CCOCC3)c3nc(/C=C/c4ccc5ccccc5n4)cn23)cc1` [Cpd 39, (E)-3-(4-(8-Morpholino-2-(2-(quinolin-2-yl)vinyl)imidazo[1,2-a]pyrazin-5-yl)benzamido)propanoic acid], for which the IC50 in assay [1] amounted to 5 nM; in assay [2], 8 nM.
In the same order, the values of `CS(=O)(=O)NC(=O)Nc1ccc(-c2cnc(N3CCOCC3)c3nc(CCc4ccc5ccccc5n4)cn23)cc1` [Cpd 40, N-((4-(8-Morpholino-2-(2-(quinolin-2-yl)ethyl)imidazo[1,2-a]pyrazin-5-yl)phenyl)carbamoyl)methanesulfonamide] are 10 nM and 20 nM.
For `COCOc1c(C)cc(-c2cnc(N3CCOCC3)c3nc(/C=C/c4ccc5ccccc5n4)cn23)cc1C` [Cpd 41, (E)-4-(5-(4-(methoxymethoxy)-3,5-dimethylphenyl)-2-(2-(quinolin-2-yl)vinyl)imidazo[1,2-a]pyrazin-8-yl)morpholine], in that order: 19 nM and 21 nM.
For the compound `O=C1NS(=O)(=O)c2ccc(-c3cnc(N4CCOCC4)c4nc(/C=C/c5ccc6ccccc6n5)cn34)cc21` [Cpd 42, (E)-5-(8-Morpholino-2-(2-(quinolin-2-yl)vinyl)imidazo[1,2-a]pyrazin-5-yl)benzo[d]isothiazol-3(2H)-one 1,1-dioxide], the IC50 in assay [1] is 1 nM; in assay [2], 2 nM.
In the same order, the values of `CN1c2cc(-c3cnc(N4CCOCC4)c4nc(/C=C/c5ccc6ccccc6n5)cn34)ccc2NS1(=O)=O` [Cpd 43, (E)-1-Methyl-6-(8-morpholino-2-(2-(quinolin-2-yl)vinyl)imidazo[1,2-a]pyrazin-5-yl)-1,3-dihydrobenzo[c][1,2,5]thiadiazole 2,2-dioxide trifluoroacetic acid salt] are 3 nM and 7 nM.
For `CC(C)[C@H](NC(=O)c1ccc(-c2cnc(N3CCOCC3)c3nc(/C=C/c4ccc5ccccc5n4)cn23)cc1)C(=O)O` [Cpd 44, (S,E)-3-Methyl-2-(4-(8-morpholino-2-(2-(quinolin-2-yl)vinyl)imidazo[1,2-a]pyrazin-5-yl)benzamido)butanoic acid trifluoroacetic acid salt], in that order: 14 nM and 9 nM.
In the same order, the values of `O=C(O)[C@@H]1CCCN1C(=O)c1ccc(-c2cnc(N3CCOCC3)c3nc(/C=C/c4ccc5ccccc5n4)cn23)cc1` [Cpd 45, (S,E)-1-(4-(8-Morpholino-2-(2-(quinolin-2-yl)vinyl)imidazo[1,2-a]pyrazin-5-yl)benzoyl)pyrrolidine-2-carboxylic acid trifluoroacetic acid salt] are 20 nM and 23 nM.
Turning to `O=C(O)CNC(=O)c1ccc(-c2cnc(N3CCOCC3)c3nc(CCc4ccc5ccccc5n4)cn23)cc1` [Cpd 46, 2-(4-(8-Morpholino-2-(2-(quinolin-2-yl)ethyl)imidazo[1,2-a]pyrazin-5-yl)benzamido)acetic acid], the IC50 in assay [1] was determined as 7 nM; in assay [2] it was 4 nM.
In the same order, the values of `Cn1nc(-c2ccc(-c3cnc(N4CCOCC4)c4nc(/C=C/c5ccc6ccccc6n5)cn34)cc2)[nH]c1=O` [Cpd 47, (E)-2-Methyl-5-(4-(8-morpholino-2-(2-(quinolin-2-yl)vinyl)imidazo[1,2-a]pyrazin-5-yl)phenyl)-2H-1,2,4-triazol-3(4H)-one] are 34 nM and 15 nM.
For `O=C1NC(=O)C(c2ccc(-c3cnc(N4CCOCC4)c4nc(/C=C/c5ccc6ccccc6n5)cn34)cc2)O1` (centres unmarked) [Cpd 48, (E)-5-(4-(8-Morpholino-2-(2-(quinolin-2-yl)vinyl)imidazo[1,2-a]pyrazin-5-yl)phenyl)oxazolidine-2,4-dione], in that order: 11 nM and 37 nM.
In the same order, the values of `Cc1cc(S(=O)(=O)NC(C)C)ccc1-c1cnc(N2CCOCC2)c2nc(/C=C/c3ccc4ccccc4n3)cn12` [Cpd 49, (E)-N-isopropyl-3-methyl-4-(8-morpholino-2-(2-(quinolin-2-yl)vinyl)imidazo[1,2-a]pyrazin-5-yl)benzenesulfonamide] are 155 nM and 98 nM.
As for `O=C(O)CNC(=O)c1ccc(-c2cnc(N3CCOCC3)c3nc(/C=C/c4ccc5ccccc5n4)cn23)cc1` [Cpd 50, (E)-2-(4-(8-Morpholino-2-(2-(quinolin-2-yl)vinyl)imidazo[1,2-a]pyrazin-5-yl)benzamido)acetic acid], the IC50 in assay [1] turned out to be 18 nM; in assay [2], 17 nM.
As to `Oc1ncn(-c2ccc(-c3cnc(N4CCOCC4)c4nc(CCc5ccc6ccccc6n5)cn34)cc2)n1` [Cpd 51, 1-(4-(8-Morpholino-2-(2-(quinolin-2-yl)ethyl)imidazo[1,2-a]pyrazin-5-yl)phenyl)-1H-1,2,4-triazol-3-ol], the half-maximal inhibitory concentration (IC50) is 4 nM in assay [1] and 5 nM in assay [2].
Regarding `O=C1NS(=O)(=O)c2cc(-c3cnc(N4CCOCC4)c4nc(CCc5ccc6ccccc6n5)cn34)ccc21` [Cpd 54, 6-(8-Morpholino-2-(2-(quinolin-2-yl)ethyl)imidazo[1,2-a]pyrazin-5-yl)benzo[d]isothiazol-3(2H)-one 1,1-dioxide trifluoroacetic acid salt], the IC50 in assay [1] and in assay [2] was 1 nM each time.
